Source: patent publication US20230322812A1, “CRYSTALLINE FORM OF HETEROBICYCLIC COMPOUND” (TAIHO PHARMACEUTICAL CO., LTD., priority 2020, published 2023)

Key:
[1] = Solid stability of crystal I (storage, chemical purity by HPLC); format: physicochemical; details: stored at 40° C. (humidity not controlled), 40° C. (humidity 75%) and 60° C. (humidity not controlled) for 4 weeks, all conditions
Experimental: (iii) High-Performance Liquid Chromatography
Measurement by high-performance liquid chromatography was performed under the following conditions.
Mobile Phase A: 10 mM phos. Buffer (pH6.3)/acetonitrile (95:5)
Mobile Phase B: acetonitrile
Column: Gemini C18 (4.6x 150 mm, 3 μm)/Phenomenex
(§1) Crystal I of compound 1 was stored at 40° C. (humidity is not controlled), 40° C. (humidity 75%), and 60° C. (humidity is not controlled) for 4 weeks. Thereafter, the chemical purity was measured by high-performance liquid chromatography, and the change was 0.5% or less under all conditions.

[2] = Differential scanning calorimetry (phase transition on heating); format: physicochemical; details: crystal I of Example 1; temperature increased
Experimental: (ii) Differential Scanning calorimetry Measurement (DSC Measurement)
DSC measurement was performed under the following conditions.
Device: METTLER TOLEDO: DSC1 STAR System
Sample Container: made of aluminum
Temperature Range: 25 to 400° C.
Temperature Increase Rate: 10° C./min
Atmospheric Gas: Nitrogen
Nitrogen Gas Flow: 30 ml/min
as §1

[3] = Oral absorbability in rats (plasma concentration of compound 1); format: in vivo; details: 30 mg/kg, male Sprague Dawley rats
Experimental: Crystal I of compound 1 was suspended in a 0.5% HPMC aqueous solution, and orally administered to male Sprague Dawley rats which were supplied from Charles River Laboratories Japan, Inc. in a dosage of 30 mg/kg. After 1, 2, 4, 6, 8, and 24 hours from administration, blood of each rat was collected from the left jugular vein, and the concentration of compound 1 in plasma was measured.

[4] = Dynamic vapor sorption (DVS) system analysis; format: physicochemical
Experimental: Dynamic vapor sorption (DVS) system analysis was performed under the following conditions.
Apparatus: VTI SA+(manufactured by TA Instruments Inc.)
Drying temperature: 60° C.
Drying equilibrium: Within the range not exceeding 300 minutes, the sample was confirmed not to decrease by 0.01 wt % in 5 minutes
Measurement temperature: 25° C.
Humidification equilibrium: Within the range not exceeding 120 minutes, the sample was confirmed not to increase by 0.01 wt % in 5 minutes
Relative Humidity Program: An increase by 5% RH from 5% RH to 95% RH and a decrease by 5% RH from 95% RH to 5% RH
A dedicated quartz holder was filled with 10 to 15 mg of crystal I of compound 1, and the weight of each sample at each humidity was continuously measured and recorded under the conditions described above. The device and data processing were handled in accordance with the method and procedure instructed for each device.

Compound: Cn1nc2ccc(-c3c[nH]c4nc(N5[C@H]6CC[C@@H]5[C@H](N)C6)n(C)c(=O)c34)c(Cl)c2c1Cl (single isomer, unassigned) [Crystal I]
- change of chemical purity after storage [1]: ≤ 0.5%
- phase transition peak in DSC measurement [2]: no peak indicating a phase transition
- oral absorbability (plasma concentration reached) ([3]; 1-24 hours after administration): achieved a sufficient concentration that provides a medicinal effect
- Cmax ([3]; rat, suspended in 0.5% HPMC aqueous solution, plasma): 3.5 µM
- AUC(0-t) ([3]; rat, suspended in 0.5% HPMC aqueous solution, plasma, read-out: AUC0-24): 37 µM·h
- change in weight due to changes in humidity (DVS) ([4]; 25° C., 5% RH to 95% RH and back to 5% RH): no changes in weight
- powder X-ray crystal analysis before and after moisture adsorption and desorption ([4]; before and after DVS moisture adsorption and desorption): did not change
